Data taken from ChEMBL document CHEMBL1147400, “Novel antimitotic dibenzocyclo-octadiene lignan constituents of the stem bark of Steganotaenia araliacea” (1993).
≈ marks a conversion by molar mass, not a printed value.

Key:
Col2 = experiment: Cytotoxicity against human Col2 cells; type: functional; details: read-out: ED50 (the source's name)
Lu1 = experiment: Cytotoxicity against human Lu1 cells; type: functional; details: read-out: ED50 (the source's name)
[1] = Antimitotic activity against rat ASK cells assessed as reversal of astrocyte morphology at 0.16 ug/ml; type: functional
[2] = Antimitotic activity against rat ASK cells assessed as reversal of astrocyte morphology at 100 ug/ml; type: functional
ZR-75-1 = experiment: Cytotoxicity against human ZR-75-1 cells; type: functional; details: read-out: ED50 (the source's name)
[3] = Antimitotic activity against rat ASK cells assessed as reversal of astrocyte morphology at 0.0064 ug/ml; type: functional
[4] = Antimitotic activity against rat ASK cells assessed as reversal of astrocyte morphology at 20 ug/ml; type: functional
[5] = Cytotoxicity against human BC1 cells; type: functional; details: read-out: ED50 (the source's name)
[6] = Antimitotic activity against rat ASK cells assessed as reversal of astrocyte morphology at 4 ug/ml; type: functional
[7] = Antimitotic activity against rat ASK cells assessed as reversal of astrocyte morphology at 0.8 ug/ml; type: functional
[8] = Antimitotic activity against rat ASK cells assessed as reversal of astrocyte morphology at 0.032 ug/ml; type: functional
HT = experiment: Cytotoxicity against human HT cells; type: functional; details: read-out: ED50 (the source's name)
KB = experiment: Cytotoxicity against human KB cells; type: functional; details: read-out: ED50 (the source's name)
SK-MEL-2 = experiment: Cytotoxicity against human SK-MEL-2 cells; type: functional; details: read-out: ED50 (the source's name)
[9] = Cytotoxicity against human U373 cells; type: functional, U-373MG ATCC; details: U373 MG, read-out: ED50 (the source's name)
[10] = Cytotoxicity against multidrug-resistant human KBV1 cells; type: functional; details: KB-V1, read-out: ED50 (the source's name)
LNCaP = experiment: Cytotoxicity against human LNCAP cells; type: functional; details: read-out: ED50 (the source's name)
A-431 = experiment: Cytotoxicity against human A431 cells; type: functional; details: read-out: ED50 (the source's name)
Bos taurus [11] = species: Bos taurus; experiment: Inhibition of calf brain tubulin polymerization by turbidimetric analysis
Bos taurus [12] = species: Bos taurus; experiment: Inhibition of calf thymus tubulin polymerization by turbidimetric analysis

Row | Compound | EC50 (Col2) [µg/mL] | EC50 (Lu1) [µg/mL] | Activity [1] [%] | Activity [2] [%] | EC50 (ZR-75-1) [µg/mL] | Activity [3] [%] | Activity [4] [%] | EC50 [5] [µg/mL] | Activity [6] [%] | Activity [7] [%] | Activity [8] [%] | EC50 (HT) [µg/mL] | EC50 (KB) [µg/mL] | EC50 (SK-MEL-2) [µg/mL] | EC50 [9] [µg/mL] | EC50 [10] [µg/mL] | EC50 (LNCaP) [µg/mL] | EC50 (A-431) [µg/mL] | ED50 (Bos taurus [11]) [µg/mL] | ED50 (Bos taurus [12]) [µg/mL]
1 | COc1cc2c(c(OC)c1OC)-c1cc3c(cc1C(=O)[C@H]1COC(=O)[C@@H]1C2)OCO3 | 2.1 (≈ 5.09 µM) | 1 (≈ 2.42 µM) | 0 | 100 | > 20 | 0 | 100 | 1.8 (≈ 4.36 µM) | 100 | 100 | 0 | 0.7 (≈ 1.7 µM) | 1.5 (≈ 3.64 µM) | > 20 | > 20 | 7.1 (≈ 17.2 µM) | 2 (≈ 4.85 µM) | > 20 | 68.2 (≈ 165 µM) | –
2 | COC[C@@H]1Cc2cc3c(cc2-c2c(ccc(OC)c2OC)C[C@@H]1C(=O)OC)OCO3 | > 20 | > 20 | – | 40 | > 20 | – | 0 | > 20 | 0 | 0 | – | > 20 | > 20 | > 20 | > 20 | > 20 | > 20 | > 20 | – | 76.9 (≈ 186 µM)
3 | COC[C@@H]1Cc2cc3c(cc2-c2c(c(OC)cc(OC)c2OC)C[C@H]1C(=O)OC)OCO3 | 9.6 (≈ 21.6 µM) | 5.5 (≈ 12.4 µM) | – | 100 | 4.7 (≈ 10.6 µM) | – | 100 | 17.3 (≈ 38.9 µM) | 0 | – | – | 11.5 (≈ 25.9 µM) | 9.2 (≈ 20.7 µM) | 14.9 (≈ 33.5 µM) | 7.8 (≈ 17.5 µM) | 0.8 (≈ 1.8 µM) | > 20 | 6.7 (≈ 15.1 µM) | – | 59.3 (≈ 133 µM)
4 | COc1cc2c(c(OC)c1OC)C[C@H]1COC(=O)[C@@H]1Cc1c-2cc(OC)c(OC)c1OC [STEGANOLIDE A] | 5.1 (≈ 11.5 µM) | 5.5 (≈ 12.4 µM) | 0 | 100 | 8.9 (≈ 20 µM) | – | 100 | 8 (≈ 18 µM) | 0 | 0 | 0 | 6.5 (≈ 14.6 µM) | 4.9 (≈ 11 µM) | 9.2 (≈ 20.7 µM) | 3.1 (≈ 6.97 µM) | 0.8 (≈ 1.8 µM) | 9 (≈ 20.2 µM) | 5.5 (≈ 12.4 µM) | – | –
